Data published in patent US20200038413A1, “METHODS OF TREATING PARKINSON'S DISEASE USING AMINOSTEROL COMPOSITIONS” (Enterin, Inc., priority 2018, published 2020).
“And” between values parts separate entries of the source, which are not always exact repeats. Equal values may be shown once.

Assays:
[1] = system: patients with PD and constipation; experiment: Phase 2 trial: safety and adverse event profile; format: in vivo, human
Description: Each dose period was staggered, so that subjects 1-2 were administered a single dose of the drug at the lowest dose of 25 mg. Once 24 hours have elapsed, and provided there are no safety concerns, the patient was sent home and brought back on day 4-8 for the next dose. During the days the subjects are home, they completed the daily diaries and e-mailed them to the study coordinators. Subjects 3-10 were dosed after the first 2 subjects have been observed for 72 hours, i.e. on Day 4. Subjects 1-2 were also brought back on Day 4-8 and administered a single dose of 50 mg. Once another 24 hours have elapsed and provided there are no safety concerns, the patients were all sent home and instructed to return on Day 7 for the next dosing level. This single dosing regimen was continued until each subject was administered a single dose of 200 mg or has reached a dose limiting toxicity (DLT). DLT was the dose which induces repeated vomiting, diarrhea, abdominal pain or symptomatic postural hypotension within 24 hours of dosing.
Adverse events were coded using the current version of MedDRA. Severity of AEs were assessed by investigators according to CTCAE (v4.03): Grade 1 is labeled as Mild, Grade 2 as Moderate, and Grade 3 and above as Severe. […] The number (percentage) of subjects who experienced an AE during escalation and fixed dosing periods were summarized by dose level and overall for each stage. The denominator for calculating the percentages were based on the number of subjects ever exposed to each dose and overall.

[2] = system: patients with PD and constipation; experiment: Phase 2 trial Stage 2: CNS symptoms (UPDRS, MMSE, PDHQ, BDI-II, sleep diary); format: in vivo, human
Excerpt: Exploratory end-points, in addition to constipation, included for example, (i) depression assessed using the Beck Depression Inventory (BDI-II) (Steer et al. 2000) and Unified Parkinson's Disease Rating Scale (UPDRS); (ii) cognition assessed using the Mini Mental State Examination (MMSE) (Palsteia et al. 2018), Unified Parkinson's Disease Rating Scale (UPDRS), and Trail Making Test (TMT); (iii) sleep and REM-behavior disorder (RBD) using a daily sleep diary, I-Button Temperature Assessment, a REM sleep behavior disorder (RBD) questionnaire (RBDQ) (Stiasny-Kolster et al. 2007), and the UPDRS; (iv) hallucinations assessed using the PD hallucinations questionnaire (PDHQ) (Papapetropoulos et al. 2008), the UPDRS, and direct questioning; (v) fatigue using the Parkinson's Disease Fatigue Scale (PFS-16) and the UPDRS; (vi) motor functions using the UPDRS; and (vii) non-motor functions using the UPDRS.
(§1) Assessments were made at baseline and at the end of the fixed dose and washout periods. Circadian system status was evaluated by continuously monitoring wrist skin temperature (Thermochron iButton DS1921H; Maxim, Dallas) following published procedures (Sarabia et al. 2008).
CNS Symptoms in Stage 2: An exploratory analysis was done with respect to the sleep data, the body temperature data, mood, fatigue, hallucinations, cognition and other motor and non-motor symptoms of PD. Continuous measurements within a subject were compared with a paired t-test and continuous measurements between subject groups were compared with a two-group t-test. Categorical data were compared with a chi-squared test or a Fisher's exact test if the expected cell counts are too small for a chi-squared test.

[3] = system: patients with PD and constipation; experiment: Phase 2 trial: circadian rhythm of wrist skin temperature; format: in vivo, human; settings: fixed dose vs baseline, 12 patients
Description: as §1
Circadian rhythm of skin temperature was evaluable in 12 patients (i.e., those who had recordings that extended from baseline through washout). Circadian system functionality was evaluated by continuously monitoring wrist skin temperature using a temperature sensor (Thermochron iButton DS1921H; Maxim, Dallas, TX) (Sarabia et al. 2008). A nonparametric analysis was performed for each participant to characterize DST as previously described (Sarabia et al. 2008; Ortiz-Tudela et al. 2010).
Briefly, this analysis includes the following parameters: (i) the inter-daily stability (the constancy of 24-hour rhythmic pattern over days, IS); (ii) intra-daily variability (rhythm fragmentation, IV); (iii) average of 10-minute intervals for the 10 hours with the minimum temperature (L10); (iv) average of 10-minute intervals for the 5 hours with the maximum temperature (M5) and the relative amplitude (RA), which was determined by the difference between M5 and L10, divided by the sum of both. Finally, the Circadian Function Index (CFI) was calculated by integrating IS, IV, and RA. Consequently, CFI is a global measure that oscillates between 0 for the absence of circadian rhythmicity and 1 for a robust circadian rhythm (Ortiz-Tudela et al. 2010).

[4] = system: myenteric intrinsic primary afferent neurons (IPANs); experiment: Whole-cell patch clamp, divided hemi-dissection preparation, FVB PD mice; format: cell-based, mouse; settings: for decrease in sAHP area under the curve / depolarisation of RMP / increase in number of APs at 2× threshold intensity / number of APs at 2× threshold intensity / AP threshold / sAHP area under the curve / RMP: FVB PD
Description: Whole-cell Patch Clamp: Whole-cell patch clamp was performed on a hemi-dissected myenteric plexus preparation as previously described. […]
Myenteric Primary Afferent Neuron Excitation: Squalamine excites myenteric primary afferent neurons. The effect of squalamine on the excitability of an isolated intestinal segment from the FVB PD mouse was explored using divided hemi-dissection preparations so that neurons are exposed for only half the area of an opened small intestinal segment. In this experiment, the inquiry was whether squalamine influenced the activity of the IPAN through direct interaction or indirectly, by stimulating release of epithelial mediators that influenced IPAN behaviour. Addition of squalamine (30 μM) to Krebs buffer in either the epithelial or the myenteric plexus compartments of the divided hemi-dissection preparation increased IPAN excitability (FIG. 12A-F). […] Addition of squalamine decreased the area under the curve of the sAHP by 77% from 86.8±88.2 to 20.3±25.3 mV.s, and depolarised RMP by 12% from −62±7 to −54±6 mV.

[5] = Preclinical oral studies in dogs; format: in vivo
[6] = 30 μM added to the myenteric plexus

## CC(C)[C@@H](CC[C@@H](C)[C@H]1CC[C@H]2[C@@H]3[C@H](O)C[C@H]4C[C@@H](NCCCNCCCCN)CC[C@]4(C)[C@H]3CC[C@]12C)OS(=O)(=O)O (single isomer, unassigned) [squalamine (ENT-01), squalamine]
[1]; Stage 1, 4/10
  Diarrhea, patients: 40%
  nausea, patients: 40%
[1]; Stage 2, 15/34
  Diarrhea, patients: 44%
[1]; Stage 2, 18/34
  nausea, patients: 52.9%
[1]; both stages, 1/44
  worsening of hemorrhoids, patients: 2.2%
[1]; both stages, 2/44
  worsening of acid reflux, patients: 4.5%
[1]; both stages, 3/44
  flatulence, patients: 6.8%
  vomiting, patients: 6.8%
[1]; both stages, 8/44
  dizziness, patients: 18%
[1]; both stages, 11/44
  abdominal pain, patients: 32%
[2]; 250 mg vs baseline
  increase in total sleep time: 18%
[2]; during treatment, patients with hallucinations (5) or delusions (1) at baseline
  hallucinations and delusions improved or disappeared: 5 of 6
[2]; maximal dose vs baseline
  improvement in frequency of arm or leg thrashing: 100%
[2]; wash-out vs baseline
  improvement in UPDRS Part 1: ~20% and 18%
[3]; p=0.001
  relative amplitude (RA): increasing
[3]; p=0.016
  circadian function index (CFI): increasing
[3]; p=0.026
  rhythm stability (IS): increasing
[3]; p=0.031
  rhythm fragmentation (IV): reducing
[4]; 30 μM added to the epithelium
  decrease in sAHP area under the curve: 77%
  depolarisation of RMP: 12%
  increase in number of APs at 2× threshold intensity: 87%
[4]; 30 μM added to the epithelium, FVB PD mouse (N=15)
  decrease in AP threshold: 44%
[4]; 30 μM added to the epithelium, before 1.6±0.6
  number of APs at 2× threshold intensity: 3.1±0.7
[4]; 30 μM added to the epithelium, before 63.7±50.4
  AP threshold: 35.7±22.3 pA
[4]; 30 μM added to the epithelium, before 86.8±88.2
  sAHP area under the curve: 20.3±25.3 mV.s
[4]; 30 μM added to the epithelium, before −62±7
  RMP: −54±6 mV
[4]; [6]
  decrease in sAHP area under the curve: 87%
  depolarisation of RMP: 13%
  increase in number of APs at 2× threshold intensity: 214%
[4]; 30 μM added to the myenteric plexus, FVB PD mouse (N=5)
  decrease in AP threshold: 37%
[4]; 30 μM added to the myenteric plexus, before 1.4±0.5
  number of APs at 2× threshold intensity: 4.4±2.8
[4]; 30 μM added to the myenteric plexus, before 46.0±31.3
  AP threshold: 29.0±10.1 pA
[4]; 30 μM added to the myenteric plexus, before −63±4
  RMP: −55±6 mV
[4]; 30 μM added to the myenteric plexus, before −71.9±60.1
  sAHP area under the curve: -9.6±15.1 mV.s
[5]
  tolerability: well tolerated
